Results: US20250346600A1, “TRICYCLIC DERIVATIVES AND RELATED USES” (MOMA Therapeutics, Inc., priority 2023, published 2025)
Read-outs that look alike come from different tables or passages of the source.

Assays:
[1] = molecular target: T1, Full length WRN protein (aa 2-1432) (Homo sapiens (Human), UniProt Q14191); assay: WRN ATPase ADP-Glo biochemical assay, Assay Format B (100 μM ATP); conditions: 0.25 nM WRN, 100 nM C6.18 ssDNA, 60 min preincubation, read-out: ATPase ADPGlo AC50 (uM)- Assay Format B
HT29 cells = assay: HT29 (MSS) 7 day viability, CellTiter Glo; format: cell-based; conditions: Homo sapiens, HT-29, 168 h, 7 days, read-out: HT29 (MSS) Viability 7 Day CTGAbs AC50
Procedure, shortened: (§1)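 10 mM DMSO stocks serially diluted 3-fold, 10 steps; cells added (HCT116 50/well, HT29 500/well); 7 d, 37 °C, 5% CO2; CellTiter Glo 20 min RT; luminescence.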

HCT116 cells = assay: HCT116 (MSI) 7 day viability, CellTiter Glo; format: cell-based; conditions: 7 days, read-out: HCT116 (MSI) Viability 7 Day Abs AC50
Procedure, shortened: as §1

[2] = molecular target: T1, Full length WRN protein (aa 2-1432); assay: WRN ATPase ADP-Glo biochemical assay, Assay Format A (10 μM ATP); conditions: 0.25 nM WRN, 100 nM C6.18 ssDNA, 30 min preincubation, read-out: ATPase ADPGlo AC50 (uM)- Assay Format A
Procedure, shortened: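 ADP-Glo luminescence measured hydrolysis of ATP by purified, baculovirus-expressed N-terminally tagged full-length WRN. Enzyme (0.5 nM) was preincubated 30 min with compound, then 200 nM ssDNA C6.18 plus 20 μM ATP were added (pre-mix levels) for 30 min at RT. IC50s come from four-parameter fits, geometric mean of at least two trials.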

T1 sequence (Q14191 2-1432): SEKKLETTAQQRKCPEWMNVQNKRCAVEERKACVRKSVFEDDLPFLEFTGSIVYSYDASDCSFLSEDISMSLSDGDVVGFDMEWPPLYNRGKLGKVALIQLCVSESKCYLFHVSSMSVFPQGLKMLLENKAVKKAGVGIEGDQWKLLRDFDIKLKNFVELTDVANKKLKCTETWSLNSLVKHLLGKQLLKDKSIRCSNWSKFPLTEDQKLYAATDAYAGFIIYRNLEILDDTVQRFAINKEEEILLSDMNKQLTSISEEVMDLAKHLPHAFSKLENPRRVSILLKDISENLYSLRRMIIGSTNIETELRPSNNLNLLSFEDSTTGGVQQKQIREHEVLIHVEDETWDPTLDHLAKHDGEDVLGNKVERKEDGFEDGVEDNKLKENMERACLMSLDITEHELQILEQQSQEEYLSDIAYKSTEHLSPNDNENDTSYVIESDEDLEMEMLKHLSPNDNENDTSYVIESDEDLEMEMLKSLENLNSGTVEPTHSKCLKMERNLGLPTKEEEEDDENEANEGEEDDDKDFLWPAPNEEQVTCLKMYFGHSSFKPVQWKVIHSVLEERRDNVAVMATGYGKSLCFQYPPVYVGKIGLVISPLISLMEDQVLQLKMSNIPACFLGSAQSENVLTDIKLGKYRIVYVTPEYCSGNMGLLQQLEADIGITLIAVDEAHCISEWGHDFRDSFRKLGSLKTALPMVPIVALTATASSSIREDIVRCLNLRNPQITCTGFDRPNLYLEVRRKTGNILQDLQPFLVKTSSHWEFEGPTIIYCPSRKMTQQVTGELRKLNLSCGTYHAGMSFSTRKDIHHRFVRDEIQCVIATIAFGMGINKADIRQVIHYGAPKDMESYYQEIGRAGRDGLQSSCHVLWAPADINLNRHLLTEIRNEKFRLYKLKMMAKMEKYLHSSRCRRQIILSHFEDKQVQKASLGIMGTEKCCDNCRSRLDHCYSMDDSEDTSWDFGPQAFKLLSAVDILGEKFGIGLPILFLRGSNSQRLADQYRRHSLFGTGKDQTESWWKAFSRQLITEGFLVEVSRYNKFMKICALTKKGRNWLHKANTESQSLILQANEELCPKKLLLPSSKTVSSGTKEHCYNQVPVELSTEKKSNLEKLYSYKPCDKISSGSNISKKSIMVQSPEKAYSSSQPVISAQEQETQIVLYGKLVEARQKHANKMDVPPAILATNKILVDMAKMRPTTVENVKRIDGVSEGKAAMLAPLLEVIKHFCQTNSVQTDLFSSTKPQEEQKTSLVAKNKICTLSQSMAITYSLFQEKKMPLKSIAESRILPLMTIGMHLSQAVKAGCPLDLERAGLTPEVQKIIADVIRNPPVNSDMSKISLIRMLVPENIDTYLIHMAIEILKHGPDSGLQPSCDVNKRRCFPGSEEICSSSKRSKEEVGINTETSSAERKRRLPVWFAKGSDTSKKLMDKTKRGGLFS

Row | SMILES | AC50 [1] | AC50 [2] | AC50 (HT29 cells) | AC50 (HCT116 cells; Homo sapiens, HCT-116, 168 h) | AC50 (HCT116 cells)
1 | C=CC(=O)N1CCOc2nn(-c3ccc(C4CC4)cc3)c3c2C(C1)N(C(=O)c1ccc(C(F)(F)F)c2[nH]ncc12)CC3 (stereo not drawn) [Compound 50, 1-(2-(4-cyclopropylphenyl)-5-(7-(trifluoromethyl)-1H-indazole-4-carbonyl)-2,3,4,5,5a,6,8,9-octahydro-7H-10-oxa-1,2,5,7-tetraazacycloocta[cd]inden-7-yl)prop-2-en-1-one] | 0.015 to 0.055 µM | 0.0015 to 0.005 µM | > 3000 nM | 100 to 250 nM | 
2 | C=CC(=O)N1CCc2nn(-c3ccc(C4CC4)cc3)c3c2C(C1)N(C(=O)c1cnc(C(F)(F)F)c(C#N)c1)CC3 (stereo not drawn) [Compound 112, 5-(7-acryloyl-2-(4-cyclopropylphenyl)-3,4,5,5a,6,7,8,9-octahydro-2H-1,2,5,7-tetraazabenzo[cd]azulene-5-carbonyl)-2-(trifluoromethyl)nicotino nitrile] | > 0.055 µM | 0.005 to 0.015 µM | > 3000 nM | 100 to 250 nM | 
3 | C=CC(=O)N1CCc2nn(-c3ccc(C4CC4)cc3)c3c2C(C1)N(C(=O)c1ccc(Br)nc1N)CC3 (stereo not drawn) [Compound 117, 1-(5-(2-amino-6-bromonicotinoyl)-2-(4-cyclopropylphenyl)-2,3,4,5,5a,6,8,9-octahydro-7H-1,2,5,7-tetraazabenzo[cd]azulen-7-yl)prop-2-en-1-one] | 0.005 to 0.015 µM | 0.0015 to 0.005 µM | > 3000 nM | 1 to 100 nM | 
4 | CC(C)c1ccc(-n2nc3c4c2CCN(C(=O)c2ccc(Br)c5[nH]cnc25)C4CN(C(=O)/C=C/CN(C)C)CC3)cc1 (stereo not drawn) [Compound 15, 1-(5-(7-bromo-1H-benzo[d]imidazole-4-carbonyl)-2-(4-isopropylphenyl)-2,3,4,5,5a,6,8,9-octahydro-7H-1,2,5,7-tetraazabenzo[cd]azulen-7-yl)-4-(dimethylamino)but-2-en-1-one] | > 0.055 µM | 0.015 to 0.055 µM | > 3000 nM | 250 to 500 nM | 
5 | C=CC(=O)N1CC(C)c2nn(-c3ccc(C(C)C)cc3)c3c2C(C1)N(C(=O)c1ccc(Br)c2[nH]cnc12)CC3 (stereo not drawn) [Compound 33, 1-(5-(7-bromo-1H-benzo[d]imidazole-4-carbonyl)-2-(4-isopropylphenyl)-9-methyl-2,3,4,5,5a,6,8,9-octahydro-7H-1,2,5,7-tetraazabenzo[cd]azulen-7-yl)prop-2-en-1-one] | 0.005 to 0.015 µM | 0.0015 to 0.005 µM | > 3000 nM |  | 1 to 100 nM
6 | C=CC(=O)N1CCc2nn(-c3ccc(C4CCC4)cc3)c3c2C(C1)N(C(=O)c1cnc(C(F)(F)F)c(O)c1)CC3 (stereo not drawn) [Compound 26, 1-(2-(4-cyclobutylphenyl)-5-(5-hydroxy-6-(trifluoromethyl)nicotinoyl)-2,3,4,5,5a,6,8,9-octahydro-7H-1,2,5,7-tetraazabenzo[cd]azulen-7-yl)prop-2-en-1-one] | 0.005 to 0.015 µM | < 0.0015 µM | > 3000 nM | 1 to 100 nM | 
7 | C=CC(=O)N1CCc2nn(-c3ccc(C4CCC4)cc3O)c3c2C(C1)N(C(=O)c1ccc(OC(F)F)nc1)CC3 (stereo not drawn) [Compound 74, 1-(2-(4-cyclobutyl-2-hydroxyphenyl)-5-(6-(difluoromethoxy)nicotinoyl)-2,3,4,5,5a,6,8,9-octahydro-7H-1,2,5,7-tetraazabenzo[cd]azulen-7-yl)prop-2-en-1-one] | 0.005 to 0.015 µM | < 0.0015 µM | > 3000 nM | 1 to 100 nM | 
8 | C=CC(=O)N1CCOc2nn(-c3ccc(C4CCC4)cc3O)c3c2C(C1)N(C(=O)c1ccc(Br)c2[nH]cnc12)CC3 (stereo not drawn) [Compound 39, 1-(5-(7-bromo-1H-benzo[d]imidazole-4-carbonyl)-2-(4-cyclobutyl-2-hydroxyphenyl)-2,3,4,5,5a,6,8,9-octahydro-7H-10-oxa-1,2,5,7-tetraazacycloocta[cd]inden-7-yl)prop-2-en-1-one] | 0.015 to 0.055 µM | 0.0015 to 0.005 µM | > 3000 nM | 1 to 100 nM | 
9 | C=CC(=O)N1CCc2nn(-c3ccc(C45CC(C4)C5)cc3)c3c2C(C1)N(C(=O)c1ccc(Br)c2[nH]cnc12)CC3 (stereo not drawn) [Compound 4, 1-(2-(4-(bicyclo[1.1.1]pentan-1-yl)phenyl)-5-(7-bromo-1H-benzo[d]imidazole-4-carbonyl)-2,3,4,5,5a,6,8,9-octahydro-7H-1,2,5,7-tetraazabenzo[cd]azulen-7-yl)prop-2-en-1-one] | 0.015 to 0.055 µM | < 0.0015 µM | > 3000 nM | 1 to 100 nM | 
10 | C=CC(=O)N1CCOc2nn(-c3ccc(C4CCC4)cc3O)c3c2C(C1)N(C(=O)c1ccc2c(Br)n[nH]c2c1)CC3 (stereo not drawn) [Compound 40, 1-(5-(3-bromo-1H-indazole-6-carbonyl)-2-(4-cyclobutyl-2-hydroxyphenyl)-2,3,4,5,5a,6,8,9-octahydro-7H-10-oxa-1,2,5,7-tetraazacycloocta[cd]inden-7-yl)prop-2-en-1-one] | 0.015 to 0.055 µM | < 0.0015 µM | > 3000 nM | 1 to 100 nM | 

Continued, in another order:

Row | AC50 [1] | AC50 [2] | SMILES | AC50 (HT29 cells) | AC50 (HCT116 cells; Homo sapiens, HCT-116, 168 h) | AC50 (HCT116 cells)
11 | 0.0015 to 0.005 µM | < 0.0015 µM | C=CC(=O)N1CCc2nn(-c3ccc(C4CC4)cc3)c3c2C(C1)N(C(=O)c1cnc(Cl)c(F)c1N)CC3 (stereo not drawn) [Compound 181, 1-(5-(4-amino-6-chloro-5-fluoronicotinoyl)-2-(4-cyclopropylphenyl)-2,3,4,5,5a,6,8,9-octahydro-7H-1,2,5,7-tetraazabenzo[cd]azulen-7-yl)prop-2-en-1-one] | > 3000 nM | 1 to 100 nM | 
12 | 0.015 to 0.055 µM | < 0.0015 µM | C=CC(=O)N1CCc2nn(-c3ccc(C4CC4)cc3O)c3c2C(C1)N(C(=O)c1cc(F)c(C(F)(F)F)nc1N)CC3 (stereo not drawn) [Compound 200, 1-(5-(2-amino-5-fluoro-6-(trifluoromethyl)nicotinoyl)-2-(4-cyclopropyl-2-hydroxyphenyl)-2,3,4,5,5a,6,8,9-octahydro-7H-1,2,5,7-tetraazabenzo[cd]azulen-7-yl)prop-2-en-1-one] | > 3000 nM | 1 to 100 nM | 
13 | 0.005 to 0.015 µM | < 0.0015 µM | C=CC(=O)N1CC(OC)c2nn(-c3ccc(C4CC4)cc3)c3c2C(C1)N(C(=O)c1cnc(C(F)(F)F)cc1N)CC3 (stereo not drawn) [Compound 187, 1-(5-(4-amino-6-(trifluoromethyl)nicotinoyl)-2-(4-cyclopropylphenyl)-9-methoxy-2,3,4,5,5a,6,8,9-octahydro-7H-1,2,5,7-tetraazabenzo[cd]azulen-7-yl)prop-2-en-1-one] | > 3000 nM | 1 to 100 nM | 
14 | 0.005 to 0.015 µM | < 0.0015 µM | C=CC(=O)N1CC(OCc2cccnc2)c2nn(-c3ccc(C4CC4)cc3)c3c2C(C1)N(C(=O)c1cnc(C(F)(F)F)cc1N)CC3 (stereo not drawn) [Compound 251, 1-(5-(4-amino-6-(trifluoromethyl)nicotinoyl)-2-(4-cyclopropylphenyl)-9-(pyridin-3-ylmethoxy)-2,3,4,5,5a,6,8,9-octahydro-7H-1,2,5,7-tetraazabenzo[cd]azulen-7-yl)prop-2-en-1-one] | > 3000 nM | 1 to 100 nM | 
15 | 0.015 to 0.055 µM | 0.0015 to 0.005 µM | C=CC(=O)N1CCc2nn(-c3ccc(C4CCC4)cc3O)c3c2C(C1)N(C(=O)c1ncc(C(F)(F)F)c(N)n1)CC3 (stereo not drawn) [Compound 159, 1-(5-(4-amino-5-(trifluoromethyl)pyrimidine-2-carbonyl)-2-(4-cyclobutyl-2-hydroxyphenyl)-2,3,4,5,5a,6,8,9-octahydro-7H-1,2,5,7-tetraazabenzo[cd]azulen-7-yl)prop-2-en-1-one] | > 3000 nM | 1 to 100 nM | 
16 | > 0.055 µM | > 0.055 µM | CS(=O)(=O)/C=C/CN1CCc2nn(-c3ccc(C4CC4)cc3O)c3c2C(C1)N(C(=O)c1cnc(C(F)(F)F)cc1N)CC3 (stereo not drawn) [Compound 257, (4-amino-6-(trifluoromethyl)pyridin-3-yl)(2-(4-cyclopropyl-2-hydroxyphenyl)-7-(3-(methylsulfonyl)allyl)-3,4,6,7,8,9-hexahydro-2H-1,2,5,7-tetraazabenzo[cd]azulen-5(5aH)-yl)methanone] | > 3000 nM | > 1000 nM | 
17 | 0.015 to 0.055 µM | < 0.0015 µM | C=CC(=O)N1CCc2nn(-c3ccc(C45CC(C4)C5)cc3)c3c2C(C1)N(C(=O)c1ccc(C(F)(F)F)nc1N)CC3 (stereo not drawn) [Compound 152, 1-(5-(2-amino-6-(trifluoromethyl)nicotinoyl)-2-(4-(bicyclo[1.1.1]pentan-1-yl)phenyl)-2,3,4,5,5a,6,8,9-octahydro-7H-1,2,5,7-tetraazabenzo[cd]azulen-7-yl)prop-2-en-1-one] | > 3000 nM | 1 to 100 nM | 
18 | 0.005 to 0.015 µM | < 0.0015 µM | C=CC(=O)N1CCc2nn(-c3ccc(C4CCC4)cc3O)c3c2C(C1)N(C(=O)c1ccc(SC(F)(F)F)nc1)CC3 (stereo not drawn) [Compound 157, 1-(2-(4-cyclobutyl-2-hydroxyphenyl)-5-(6-((trifluoromethyl)thio)nicotinoyl)-2,3,4,5,5a,6,8,9-octahydro-7H-1,2,5,7-tetraazabenzo[cd]azulen-7-yl)prop-2-en-1-one] | > 3000 nM | 1 to 100 nM | 
